Assay results published in patent US20230263758A1, “COMPOSITIONS OF EDTA HAVING ACTIVITY AGAINST PLANKTONIC AND BIOFILM CELLS OF CLINICALLY RELEVANT PATHOGENS” (SterileCare Inc., priority 2022, published 2023).
Where a name gives a salt, the structure may show the parent alone.

Legend:
S. epidermidis SK9 = assay: MIC, micro broth dilution; type: cell-based, Staphylococcus epidermidis; settings: agent alone
Description: (§1) An assay was made using a minimum inhibitory concentration (MIC) and minimum bactericidal concentration (MBC) and minimum fungicidal concentration (MFC) determination. The MIC was determined by the micro broth dilution method in 96-well plates. Serial two-fold dilutions of tetrasodium EDTA (from 2% to 0.015%), ethanol (from 50% to 0.1%) and chlorhexidine HCl (from 100 μg/mL to 0.025 μg/mL) were prepared in MH broth with a final volume of 90 μL per well. A 10 μL containing 1×10^5 bacterial cells or 2×10^3 fungal cells were added to each well. The inoculated plates were covered with a lid, sealed with Parafilm, and incubated for 24 h at 37° C. with slight rocking on a tilting platform shaker. After incubation, the optical density at 600 nm (OD 600) of the cultures in each well was measured using an xMark™ Microplate Absorbance Spectrophotometer (Bio-Rad). […] MBCs and MFCs were determined by transferring 100 μL from each well with no apparent growth onto appropriate agar plates, followed by incubation for 24 h at 37° C.

Candida albicans SK4b [1] = assay: MIC, micro broth dilution; type: cell-based; settings: C. albicans SK4b; agent alone
Description: as §1

Escherichia coli ON29 [2] = assay: MIC, micro broth dilution; type: cell-based; settings: E. coli ON29; agent alone
Description: as §1

Proteus mirabilis ON153 [3] = assay: MIC, micro broth dilution; type: cell-based; settings: P. mirabilis ON153; agent alone
Description: as §1

[4] = system: Pseudomonas aeruginosa SK1; assay: MIC, micro broth dilution; type: cell-based; settings: P. aeruginosa SK1; agent alone
Description: as §1

Serratia marcescens SK2 [5] = assay: MIC, micro broth dilution; type: cell-based; settings: S. marcescens SK2; agent alone
Description: as §1

[6] = system: Staphylococcus aureus ON89; assay: MIC, micro broth dilution; type: cell-based; settings: S. aureus ON89; agent alone
Description: as §1

[7] = system: Staphylococcus epidermidis ON170; assay: MIC, micro broth dilution; type: cell-based; settings: S. epidermidis ON170; agent alone
Description: as §1

[8] = system: Stenotrophomonas maltophilia ON17; assay: MIC, micro broth dilution; type: cell-based; settings: S. maltophilia ON17; agent alone
Description: as §1

C. albicans ON47 = assay: MIC, micro broth dilution; type: cell-based, Candida albicans; settings: agent alone
Description: as §1

Candida albicans SK4b [9] = assay: Checkerboard titration, FICI; type: cell-based; settings: C. albicans SK4b
Description: (§2) A fourth composition and solution included tetrasodium EDTA with ethanol or chlorhexidine HCl. This fourth composition and solution were created using checkerboard titration methods using micro broth dilution in 96-well microtiter plates. The concentrations of antimicrobials used were based on previously determined MIC values. Briefly, 200 μL of two-fold dilutions of tetrasodium EDTA and ethanol or chlorhexidine HCl were prepared in MH or MH II broth with standardized cell suspension. […] Microtiter plates were incubated at 37° C. for 24 h, and the results were analyzed. Each test was performed in duplicate and included a growth control without adding any antimicrobials.

Escherichia coli ON29 [10] = assay: Checkerboard titration, FICI; type: cell-based; settings: E. coli ON29
Description: as §2

Proteus mirabilis ON153 [11] = assay: Checkerboard titration, FICI; type: cell-based; settings: P. mirabilis ON153
Description: as §2

[12] = system: Pseudomonas aeruginosa SK1; assay: Checkerboard titration, FICI; type: cell-based; settings: P. aeruginosa SK1
Description: as §2

Serratia marcescens SK2 [13] = assay: Checkerboard titration, FICI; type: cell-based; settings: S. marcescens SK2
Description: as §2

[14] = system: Staphylococcus aureus ON89; assay: Checkerboard titration, FICI; type: cell-based; settings: S. aureus ON89
Description: as §2

[15] = system: Staphylococcus epidermidis ON170; assay: Checkerboard titration, FICI; type: cell-based; settings: S. epidermidis ON170
Description: as §2

[16] = system: Stenotrophomonas maltophilia ON17; assay: Checkerboard titration, FICI; type: cell-based; settings: S. maltophilia ON17
Description: as §2

E. coli SK2 = assay: Checkerboard titration, FICI; type: cell-based, Escherichia coli
Description: as §2

Candida albicans SK4b [17] = assay: MBC/MFC determination; type: cell-based; settings: C. albicans SK4b; agent alone
Description: as §1

Escherichia coli ON29 [18] = assay: MBC/MFC determination; type: cell-based; settings: E. coli ON29; agent alone
Description: as §1

Proteus mirabilis ON153 [19] = assay: MBC/MFC determination; type: cell-based; settings: P. mirabilis ON153; agent alone
Description: as §1

[20] = system: Pseudomonas aeruginosa SK1; assay: MBC/MFC determination; type: cell-based; settings: P. aeruginosa SK1; agent alone
Description: as §1

Serratia marcescens SK2 [21] = assay: MBC/MFC determination; type: cell-based; settings: S. marcescens SK2; agent alone
Description: as §1

[22] = system: Staphylococcus aureus ON89; assay: MBC/MFC determination; type: cell-based; settings: S. aureus ON89; agent alone
Description: as §1

[23] = system: Staphylococcus epidermidis ON170; assay: MBC/MFC determination; type: cell-based; settings: S. epidermidis ON170; agent alone
Description: as §1

[24] = system: Stenotrophomonas maltophilia ON17; assay: MBC/MFC determination; type: cell-based; settings: S. maltophilia ON17; agent alone
Description: as §1

[25] = system: Staphylococcus epidermidis SK9; assay: Checkerboard FBEC index, 48-h biofilm; type: cell-based; settings: S. epidermidis SK9 biofilm
Description: (§3) In step (4), microtiter plates are incubated at 37° C. for 24 h. then (6), after incubation, the bacterial and fungal cells were dislodged from the pegs into the recovery medium described above.
(§4) Three 10-μL aliquots, for a total of 30 μL from each well of recovery medium, were spotted on MH agar plates and incubated for 24 h at 37° C. […] The FBEC determination is a modification of the FICI.

[26] = system: Staphylococcus aureus ON89; assay: Checkerboard FBEC index, 48-h biofilm; type: cell-based; settings: S. aureus ON89 biofilm
Description: as §3, §4

MRSA ON184 = assay: Checkerboard, FMCI; type: cell-based, Staphylococcus aureus; settings: EDTA + chlorhexidine HCl
Description: as §1
A fourth composition and solution included tetrasodium EDTA with ethanol or chlorhexidine HCl. […] The concentrations of antimicrobials used were based on previously determined MIC values. […] Microtiter plates were incubated at 37° C. for 24 h, and the results were analyzed. […]

Proteus mirabilis ON153 [27] = assay: Checkerboard FBEC index, 48-h biofilm; type: cell-based; settings: P. mirabilis ON153 biofilm; EDTA + chlorhexidine HCl
Description: as §3, §4

[28] = EDTA + chlorhexidine HCl checkerboard

O=C([O-])CN(CCN(CC(=O)[O-])CC(=O)[O-])CC(=O)[O-].[Na+].[Na+].[Na+].[Na+] [EDTA, tetrasodium EDTA]
MIC (S. epidermidis SK9): 0.063 % w/v | MIC (Candida albicans SK4b [1]): 1 % w/v | MIC (Escherichia coli ON29 [2]): 0.5 % w/v | MIC (Proteus mirabilis ON153 [3]): 1 % w/v | MIC [4]: 0.25 % w/v | MIC (Serratia marcescens SK2 [5]): 2 % w/v | MIC [6]: 0.063 % w/v | MIC [7]: 0.063 % w/v | MIC [8]: 0.063 % w/v | MIC (C. albicans ON47): 1 % w/v | Inhibitory concentration in combination (Candida albicans SK4b [9]; [28]): 0.063 % w/v | Inhibitory concentration in combination (Candida albicans SK4b [9]; EDTA + ethanol checkerboard): 0.25 % w/v | Inhibitory concentration in combination (Escherichia coli ON29 [10]; [28]): 0.008 % w/v | Inhibitory concentration in combination (Escherichia coli ON29 [10]; EDTA + ethanol checkerboard): 0.25 % w/v | Inhibitory concentration in combination (Proteus mirabilis ON153 [11]; [28]): 0.063 % w/v | Inhibitory concentration in combination (Proteus mirabilis ON153 [11]; EDTA + ethanol checkerboard): 0.5 % w/v | Inhibitory concentration in combination [12, 28]: 0.5 % w/v | Inhibitory concentration in combination ([12]; EDTA + ethanol checkerboard): 0.031 % w/v | Inhibitory concentration in combination (Serratia marcescens SK2 [13]; [28]): 0.063 % w/v | Inhibitory concentration in combination (Serratia marcescens SK2 [13]; EDTA + ethanol checkerboard): 0.5 % w/v | Inhibitory concentration in combination [14, 28]: 0.008 % w/v | Inhibitory concentration in combination ([14]; EDTA + ethanol checkerboard): 0.015 % w/v | Inhibitory concentration in combination [15, 28]: 0.063 % w/v | Inhibitory concentration in combination ([15]; EDTA + ethanol checkerboard): 0.015 % w/v | Inhibitory concentration in combination [16, 28]: 0.015 % w/v | Inhibitory concentration in combination ([16]; EDTA + ethanol checkerboard): 0.031 % w/v | Inhibitory concentration in combination (E. coli SK2; [28]): 0.008 % w/v | Inhibitory concentration in combination (E. coli SK2; EDTA + ethanol checkerboard): 0.015 % w/v | MBC/MFC (Candida albicans SK4b [17]): 1 % w/v | MBC/MFC (Escherichia coli ON29 [18]): 1 % w/v | MBC/MFC (Proteus mirabilis ON153 [19]): 2 % w/v | MBC/MFC [20]: 1 % w/v | MBC/MFC (Serratia marcescens SK2 [21]): 2 % w/v | MBC/MFC [22]: 1 % w/v | MBC/MFC [23]: 0.5 % w/v | MBC/MFC [24]: 1 % w/v | Biofilm eradication concentration in combination (FBEC) ([25]; EDTA + ethanol): 0.031 % w/v | Biofilm eradication concentration in combination (FBEC) ([26]; EDTA + ethanol): 0.063 % w/v

[H]/N=C(\N/C(=N/[H])NCCCCCCNC(=N)NC(=N)Nc1ccc(Cl)cc1)Nc1ccc(Cl)cc1 [Chlorhexidine HCl, chlorhexidine HCl, reference compound]
Inhibitory concentration in combination (Candida albicans SK4b [9]; [28]): 0.8 µg/mL | Inhibitory concentration in combination (Escherichia coli ON29 [10]; [28]): 0.2 µg/mL | Inhibitory concentration in combination (Proteus mirabilis ON153 [11]; [28]): 0.8 µg/mL | Inhibitory concentration in combination [12, 28]: 0.8 µg/mL | Inhibitory concentration in combination (Serratia marcescens SK2 [13]; [28]): 1.5 µg/mL | Inhibitory concentration in combination [14, 28]: 0.1 µg/mL | Inhibitory concentration in combination [15, 28]: 0.05 µg/mL | Inhibitory concentration in combination [16, 28]: 0.2 µg/mL | Inhibitory concentration in combination (E. coli SK2; [28]): 0.1 µg/mL | Microbicidal concentration in combination (MRSA ON184): 0.4 µg/mL | Biofilm eradication concentration in combination (FBEC) ([25]; EDTA + chlorhexidine HCl): 3.125 µg/mL | Biofilm eradication concentration in combination (FBEC) ([26]; EDTA + chlorhexidine HCl): 3.125 µg/mL | Biofilm eradication concentration in combination (FBEC) (Proteus mirabilis ON153 [27]): 3.125 µg/mL
